Measured values as given in patent US4465681A, “Bis-(aminoalkoxy)-phenyl, pyridyl ketones, and use as immunological agents” (Yoshitomi Pharmaceutical Industries Ltd., priority 1980, dated 1984).
“Also recorded” adds a separate entry of the source. Counter-ions that a name gives are not always drawn.

What was measured:
[1] = system: adjuvant arthritis; test: Anti-adjuvant arthritis activity in rats; assay type: in vivo, male Lewis rats
Description: (A model disease of rheumatoid arthritis) Male Lewis rats (8-9 weeks old) were used. Adjuvant arthritis was caused by the method described by B. B. Newbould in "Brit. J. Pharmacol.", 21, 127 (1963). Twenty-one days after the subcutaneous injection of a suspension of killed tubercle bacillus in Freund's adjuvant into the tail of the rats, the severity of arthritis was assayed as the hindleg volume. Each group of the rat was orally administered with the test compound once a day.

[2] = system: plaque-forming cells (PFC) in the spleen; test: Activity for suppressing immune response in BALB/C strain mice: plaque-forming cells (PFC); assay type: in vivo, female BALB/C strain mice; details: 30 mg/kg orally, same and next day of sensitization; 4 days after sensitization; control 17.4 ± 2.3 (for A), 9.5 ± 1.0 (for B); **p < 0.01 vs control
Description: (§1) Female BALB/C strain mice (6 weeks old) were used by dividing into groups of 6 animals. The sensitization was made by intraperitoneal injection of antigen: 5×10^8 sheep red blood cells. Each mouse was orally administered with the test compound on the same day and the next day of the sensitization. Four days after the sensitization, the number of plaque-forming cells (PFC) in the spleen, and the number of rosette-forming cells (RFC) in the spleen and/or thymus were measured in a usual manner.

[3] = system: rosette-forming cells (RFC) in the spleen and/or thymus; test: Activity for suppressing immune response in BALB/C strain mice: rosette-forming cells (RFC); assay type: in vivo, female BALB/C strain mice; details: 30 mg/kg orally, 4 days after sensitization; for No. of RFC, Spleen: control 135 ± 27 (for A), 172 ± 32 (for B), B **p < 0.01 vs control
Description: as §1

[4] = system: rosette-forming cells (RFC) in the spleen and/or thymus; test: Activity for potentiating immune response in C57BL/6 strain mice: rosette-forming cells (RFC); assay type: in vivo, female C57BL/6 strain mice; details: 30 mg/kg orally, 6 days after sensitization; for No. of RFC, Spleen: control 75 ± 17 (for A), 55 ± 11 (for B), **p < 0.01 vs control
Description: Female C57BL/6 strain mice (6 weeks old) were used dividing into groups of 6 animals. The sensitization was made by intraperitoneal injection of antigen: 5×10^8 sheep red blood cells. Each mouse was orally administered with the test compound on the same day and next day of the sensitization. Six days after the sensitization, the number of rosette-forming cells (RFC) in the spleen and/or thymus was measured in a usual manner.

[5] = system: peritoneal macrophages; test: Activation of peritoneal macrophage in mice (phagocytosis of yeast); assay type: cell-based, male dd mice; details: 0 μM control 33.9 ± 0.8
Description: Peritoneal macrophages were obtained from male dd mice (8 weeks old). After washing macrophages, the cells were adjusted to 5×10^6 macrophages/ml in Hanks' solution. A mixture containing 100 μl of the macrophage suspension, 50 μl of mice serum and 10 μl of the test compound was preincubated at 37° C. for 10 minutes, and then 50 μl of yeast cells (2.5×10^8 /ml) was added thereto. After further incubation of the mixture at 37° C. for 20 minutes, the number of macrophages phagocytosing yeast was counted in a usual manner.

[6] = Acute toxicity; assay type: in vivo; details: mouse, in vivo
Description: (§2) Acute toxicity was determined using male dd mice (8 weeks old).

[7] = system: male dd mice; test: Acute toxicity; assay type: in vivo; details: p.o.; printed beside LD50 >1000 mg/kg
Description: as §2

Structure (SMILES) | Volume of Hindleg ([1]; 50 mg/kg orally once a day, twenty-one days after adjuvant injection, control 2.40 ± 0.20, **p < 0.01 vs control) [mL] | anti-adjuvant arthritis activity (in words) ([1]; dose of 50 mg/kg, dihydrochloride hemihydrate, 50 mg/kg) | No. of PFC, Spleen [2] | No. of RFC, Thymus ([3]; control 9.5 ± 1.0, **p < 0.01 vs control) | No. of RFC, Spleen [3] | No. of RFC, Thymus ([4]; control 2.8 ± 0.5, **p < 0.01 vs control) | No. of RFC, Spleen [4] | Phagocytosis ([5]; 10 μM) [%] | Phagocytosis ([5]; 30 μM, **p < 0.01 vs control) [%] | Phagocytosis ([5]; 100 μM, **p < 0.01 vs control) [%] | LD50 ([6]; ip) [mg/kg] | LD50 ([6]; po) [mg/kg] | dead/total animals [7]
CN(C)CCOc1ccc(C(=O)c2cccnc2OCCN(C)C)cc1 [Test compound A, 2,4'-bis(2-dimethylaminoethoxy)-3-benzoylpyridine dihydrochloride hemihydrate] | 1.17 ± 0.29 | significant inhibition of adjuvant arthritis; also recorded: has anti-arthritis activity | 9.0 ± 1.4 × 10^4 | 1.2 ± 0.4 × 10^4 | 126 ± 24 × 10^4 | 7.4 ± 1.1 × 10^4 | 214 ± 46 × 10^4 | 35.5 ± 1.9 | 46.5 ± 2.7 | 54.3 ± 3.1 | 300 | > 1000 | 1/6
CC(CN(C)C)Oc1ccc(C(=O)c2cccnc2OC(C)CN(C)C)cc1 (stereo not shown) [Test compound B, 2,4'-bis(1-methyl-2-dimethylaminoethoxy)-3-benzoylpyridine dioxalate] | – | – | 4.6 ± 0.8 × 10^4 | – | 88 ± 10 × 10^4 | – | 149 ± 22 × 10^4 | 40.8 ± 2.7 | 49.6 ± 2.1 | 63.4 ± 6.7 | 250 | > 1000 | 0/5
